Data taken from patent US10252997B2, “Monocyclic compound” (Takeda Pharmaceutical Company Limited, priority 2015, dated 2019).

Tests used:
[1] = system: collagen I gene expression level in liver; experiment: Inhibitory effect on liver fibrosis caused by NASH (collagen I gene expression level in liver); assay type: in vivo; settings: homo low-density lipoprotein receptor deficient mouse, choline-deficient amino acid diet, oral once per day for three weeks
Procedure: The action on liver fibrosis caused by non-alcoholic steatohepatitis (NASH) was verified by the following method.
(§1) For efficacy evaluation of action on the above-mentioned fibrosis, 9-week-old, male, homo low-density lipoprotein receptor deficient mouse (Jackson Laboratories (Bar Harbor Me., USA)) was used. Specifically, a choline-deficient amino acid diet (A08111307, Research Diets, New Brunswick, N.J., USA) was fed to the above-mentioned mouse for one week, and a drug was administered for three weeks, and then the collagen I gene expression level in liver after the drug administration was measured.
(§2) For the above-mentioned drug administration group, the test compound suspended in 0.5% methylcellulose solution was orally administered by gavage using a stomach gavage needle once per day (n=8). […]
The measurement of the collagen I gene expression level in liver was performed by the following method. […] The total RNA was purified using RNeasy Mini Kit (Qiagen, Valencia, Calif., USA), and cDNA was prepared using High Capacity cDNA Reverse Transcription Kit (PN4368814, Applied Biosystems, Foster City, Calif., USA), and the collagen I gene expression level was measured (collagen type I alpha 1, Part Number 4351370, Applied Biosystems) by the quantitative PCR method (TaqMan Gene Expression Master Mix, PN4369016, Applied Biosystems). […]

[2] = Anti-fatty liver effect (triglyceride amount in liver); assay type: in vivo; settings: homo low-density lipoprotein receptor deficient mouse, choline-deficient amino acid diet, oral once per day for three weeks
Source text: As representative examples of anti-fatty liver effect, the action on fatty liver caused by non-alcoholic steatohepatitis was verified by the following method.
as §1, with “triglyceride amount” for “collagen I gene expression level”
as §2
The measurement of the triglyceride amount in liver was performed by the following method. […] The total weight of the isolated liver was measured, and a part of the liver was immediately cryopreserved using dry ice. […] The dried substance was dissolved in 2-propanol, and the triglyceride concentration in the solution was measured by autoanalyzer (Hitachi 7180 type). The total triglyceride amount in the liver (mg/liver) was calculated from the weight of the liver used for the measurement and the total liver weight. […]

Structure (SMILES): C[C@@H](COc1cnc(-c2ccc(Oc3cccc(OCC4CC4)c3)cc2)o1)NC(N)=O [Example 82, 1-((2S)-1-((2-(4-(3-(cyclopropylmethoxy)phenoxy)phenyl)-1,3-oxazol-5-yl)oxy)propan-2-yl)urea]
- inhibitory effect on liver fibrosis caused by non-alcoholic steatohepatitis (collagen I gene expression level in liver, FIG. 1) [1]: superior inhibitory effect on liver fibrosis caused by non-alcoholic steatohepatitis
- inhibitory effect on fatty liver caused by non-alcoholic steatohepatitis (triglyceride amount in liver, FIG. 2) [2]: superior inhibitory effect on fatty liver caused by non-alcoholic steatohepatitis
